Data published in patent US9539341B2, “Methods and compositions for targeting adipose cells in mammals” (Board of Regents, the University of Texas System, priority 2011, dated 2017).
Like-named read-outs stand apart in the source and are kept apart here.

T1: recombinant bacterially-purified mouse ΔDCN (Mus musculus, UniProt P28654)
T1 construct: cloning fragments encoding amino acids 1-354 and 45-354 of mouse DCN cDNA (OriGene); His6; made in house
T1 sequence (P28654 45-354): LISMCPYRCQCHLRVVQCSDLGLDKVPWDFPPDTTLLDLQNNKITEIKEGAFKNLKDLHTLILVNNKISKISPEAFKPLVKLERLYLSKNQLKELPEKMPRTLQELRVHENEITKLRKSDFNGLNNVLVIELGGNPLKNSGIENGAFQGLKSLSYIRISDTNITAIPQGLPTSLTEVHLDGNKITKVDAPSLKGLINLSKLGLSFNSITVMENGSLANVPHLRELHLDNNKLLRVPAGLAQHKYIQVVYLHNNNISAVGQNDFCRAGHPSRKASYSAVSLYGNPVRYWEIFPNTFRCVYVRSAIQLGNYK

T2: full-length glycosylated mouse DCN (mDCN*) (Mus musculus, UniProt P28654)
T2 construct: full-length glycosylated mouse DCN (mDCN*); purchased R&D Systems; host or cells: NS0
T2 sequence (P28654 31-354): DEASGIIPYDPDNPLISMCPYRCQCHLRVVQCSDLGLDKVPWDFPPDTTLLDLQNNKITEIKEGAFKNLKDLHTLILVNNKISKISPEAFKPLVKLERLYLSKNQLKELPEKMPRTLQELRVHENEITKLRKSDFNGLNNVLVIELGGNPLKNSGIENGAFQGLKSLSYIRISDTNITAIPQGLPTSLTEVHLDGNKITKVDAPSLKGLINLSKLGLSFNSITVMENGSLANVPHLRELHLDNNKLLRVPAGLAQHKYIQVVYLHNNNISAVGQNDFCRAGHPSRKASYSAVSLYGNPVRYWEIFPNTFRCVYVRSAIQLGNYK


Key:
[1] = Maximal tolerable dose (MTD) with increasing peptide doses; format: in vivo, mice
From the text: (§1) In some embodiments targeting peptides selective for angiogenic vasculature in adipose tissue could be used to treat obesity associated disorders, for example for weight reduction or for preventing weight gain. […] Because brown adipose tissue more vascularized, a vasculature based targeting approach would be very effective for delivery of therapeutic reagents to BAT for activation of this tissue.
When the therapeutic treatment of adipose associated body composition or body weight disorders such as obesity, lypodystrophy, diabetes or metabolic syndrome, fibrosis and cancer is contemplated, the appropriate dosage may also be determined using animal studies to determine the maximal tolerable dose, or MTD, of a bioactive agent per kilogram weight of the test subject. In general, at least one animal species tested is mammalian. Those skilled in the art regularly extrapolate doses for efficacy and avoiding toxicity to other species, including human. Before human studies of efficacy are undertaken, Phase I clinical studies help establish safe doses.
(§2) This reduction was due to the targeted depletion of ASC through apoptotic cell death as evidenced at 48 hrs after injection (see FIG. 14).

[2] = tested on: cells from the kidney or peripheral blood; experiment: In vivo apoptosis in non-target tissues, APO-TRACE and flow cytometry; set-up: species or system mice; details: 2 mg injected, 48 hrs
From the text: FIG. 15 illustrates that apoptosis induced by treatment with cytotoxic WAT7-KLAKLAK2 (SEQ ID NO:13-SEQ ID NO:31) all-D-peptide was limited to target tissue. APO-TRACE reagent (Sigma) and flow cytometry were used to detect apoptosis induction in both subcutaneous and intraperitoneal WAT cells, but not in cells from the kidney or peripheral blood.
as §1, §2

[3] = molecular target: T1, recombinant bacterially-purified mouse ΔDCN; experiment: ELISA binding assay, ΔDCN; details: His6-tagged protein coated at 10 μg/ml
From the text: (§3) Immunoblotting and Binding Assays: Protein preparations resolved on SDS-PAGE were blotted onto Immobilon-FL membrane (Millipore), blocked with Odyssey blocking buffer (Licor Biosciences), and probed (in PBS/0.05% Triton X-100) with goat anti-DCN (R&D Systems, 1:1,000), rabbit anti-ANX2A (Aviva, 1:1,000), rabbit anti-mouse b-actin (Abcam, 1:10,000) antibodies, or pre- and post-immune antisera against WAT7 (1:1,000) as indicated. Signal was detected by Odyssey imaging system using anti-goat IRDye 800CW or anti-rabbit IRDye 680 both from Licor Biosciences. Bovine DCN was from Sigma-Aldrich, NS0-derived murine DCN was from R&D Systems. Murine DCN cDNA was generated from WAT total RNA using SuperScript kit (Invitrogen). For bacterial expression, full-length mouse core DCN and ΔDCN isoforms were produced by cloning fragments encoding amino acids 1-354 and 45-354 of mouse DCN cDNA (OriGene) or of CLIC4 cDNA (OriGene) in-frame with the His6Tag into pET28a vector, respectively. His6-tagged proteins were purified with His-Tag kit (Novagen). […] Bound peptides or FLAG-resistin were probed with corresponding rabbit anti-peptide Genemed antibodies (1:2,000) or rabbit anti-FLAG antibodies (Sigma-Aldrich, 1:2,000) followed by secondary goat anti-rabbit HRP-conjugated antibodies (Millipore, 1:5,000) and signal detection with Ultra-TMB (Pierce) substrate and measurement of absorbance at 450 nm. […]

[4] = molecular target: T3, glycosylated bovine DCN (bDCN*) (Bos taurus, UniProt P21793); experiment: ELISA binding assay, glycosylated bovine DCN; details: compared with BSA background
T3 construct: purchased Sigma-Aldrich
From the text: as §3

[5] = molecular target: T2, full-length glycosylated mouse DCN (mDCN*); experiment: ELISA binding assay, glycosylated mouse DCN; details: compared with BSA background
From the text: as §3

T3 sequence (P21793 31-360): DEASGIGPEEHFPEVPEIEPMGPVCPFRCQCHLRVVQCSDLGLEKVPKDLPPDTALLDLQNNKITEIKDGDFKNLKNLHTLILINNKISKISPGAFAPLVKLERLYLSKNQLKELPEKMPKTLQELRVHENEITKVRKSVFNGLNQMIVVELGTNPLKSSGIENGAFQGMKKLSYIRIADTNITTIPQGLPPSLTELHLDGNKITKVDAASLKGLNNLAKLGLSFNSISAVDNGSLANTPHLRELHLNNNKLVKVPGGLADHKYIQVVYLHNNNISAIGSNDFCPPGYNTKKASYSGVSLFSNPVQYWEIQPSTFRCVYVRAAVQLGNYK

| Molecule | MTD [1] | MTD ([1]; mouse, in vivo, read-out: MTD) | apoptotic cell death in kidney or peripheral blood [2] | binding to ΔDCN (OD450) [3] | binding to glycosylated bovine DCN (OD450) [4] | binding to glycosylated mouse DCN (OD450) [5] |
| --- | --- | --- | --- | --- | --- | --- |
| CC(C)C[C@@H](NC(=O)[C@@H](CCCCN)NC(=O)CCCCCNC(=O)[C@H]1CSSC[C@@H](N)C(=O)N[C@H](CO)C(=O)N[C@H](Cc2c[nH]c3ccccc23)C(=O)N[C@H](CCCCN)C(=O)N[C@H](Cc2ccc(O)cc2)C(=O)N[C@H](Cc2c[nH]c3ccccc23)C(=O)N[C@H](Cc2ccccc2)C(=O)NCC(=O)N[C@H](CCC(=O)O)C(=O)N1)C(=O)N[C@H](C)C(=O)N[C@H](CCCCN)C(=O)N[C@H](CC(C)C)C(=O)N[C@H](C)C(=O)N[C@H](CCCCN)C(=O)N[C@H](CCCCN)C(=O)N[C@H](CC(C)C)C(=O)N[C@H](C)C(=O)N[C@H](CCCCN)C(=O)N[C@H](CC(C)C)C(=O)N[C@H](C)C(=O)N[C@H](CCCCN)C(=O)O [WAT7-KLAKLAK2] | No MTD was reached | > 100 mg/kg | no apoptotic cell death was identified | – | – | – |
| Resistin: FLAG-tagged mouse resistin produced in HEK293 cells; WAT-secreted adipokine, ligand of ΔDCN (protein) SSMPLCPIDEAIDKKIKQDFNSLFPNAIKNIGLNCWTVSSRGKLASCPEGTAVLSCSCGSACGSWDIREEKVCHCQCARIDWTAARCCKLQVAS | – | – | – | dose-dependent | completely inefficient in binding | completely inefficient in binding |
